According to BindingDB's records for doi:10.1016/j.bmcl.2006.06.087 (Fundp, 2006):
pIC50: −log10 of the molar value.

What follows are molecules tested against T1, Fatty-acid amide hydrolase 1 [30-579] (Rattus norvegicus, UniProt P97612) (assay: FAAH Inhibition Assay). Details: pH 9; 37 °C.
T1 construct: 30-579
T1 sequence (P97612 whole entry): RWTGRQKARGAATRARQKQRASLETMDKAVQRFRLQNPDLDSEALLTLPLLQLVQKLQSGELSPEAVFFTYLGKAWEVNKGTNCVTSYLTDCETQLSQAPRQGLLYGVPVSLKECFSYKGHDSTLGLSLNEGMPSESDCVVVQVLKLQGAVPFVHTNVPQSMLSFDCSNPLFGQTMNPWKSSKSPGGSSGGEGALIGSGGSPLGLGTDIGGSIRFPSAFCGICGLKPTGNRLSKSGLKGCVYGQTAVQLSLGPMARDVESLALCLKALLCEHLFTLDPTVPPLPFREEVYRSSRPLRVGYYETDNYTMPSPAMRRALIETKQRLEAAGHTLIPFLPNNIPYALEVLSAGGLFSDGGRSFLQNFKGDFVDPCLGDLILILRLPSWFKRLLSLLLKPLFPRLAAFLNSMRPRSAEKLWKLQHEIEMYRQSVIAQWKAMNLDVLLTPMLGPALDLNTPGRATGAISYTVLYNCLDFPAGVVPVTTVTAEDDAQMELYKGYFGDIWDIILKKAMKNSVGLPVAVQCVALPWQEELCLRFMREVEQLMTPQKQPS
Description: The effect of the test compounds on the enzymatic hydrolysis of [3H]anandamide was evaluated by using rat brain homogenate preparations. [3H]Ethanolamine produced from [3H]AEA hydrolysis was used to calculate FAAH activity and was measured by scintillation counting of the aqueous phase after extraction of the incubation mixture. Data are expressed as the concentration exerting a half maximal inhibition (IC50).

pIC50 | SMILES
5.52 | CCCCCCCCN1C(=O)C(c2ccccc2)(c2ccccc2)NC1=S [3-octyl-5,5-diphenyl-2-sulfanylideneimidazolidin-4-one]
3.23 | CCCCCCCCN1C(=O)C(c2ccc(Br)cc2)(c2ccc(Br)cc2)NC1=S [5,5-bis(4-bromophenyl)-3-octyl-2-sulfanylideneimidazolidin-4-one]
9.50 | O=C(CCCCCCc1ccccc1)c1nc2ncccc2o1 [7-phenyl-1-{pyrido[2,3-d][1,3]oxazol-2-yl}heptan-1-one]

More lines, now with the values behind:

SMILES | pIC50
O=C1N(c2ccccc2)C(=S)NC1(c1ccccc1)c1ccccc1 [3,5,5-triphenyl-2-sulfanylideneimidazolidin-4-one] | 4.53
C#CCCCCCCCCCNC(=O)Oc1cccc(-c2cccc(C(N)=O)c2)c1 [3-(3-carbamoylphenyl)phenyl N-(undec-10-yn-1-yl)carbamate] | 8.00
CCCCCCN1C(=O)C(c2ccccc2)(c2ccccc2)NC1=S [3-hexyl-5,5-diphenyl-2-sulfanylideneimidazolidin-4-one] | 5.35
CCCCCCN1C(=O)NC(c2ccccc2)(c2ccccc2)C1=O [3-hexyl-5,5-diphenylimidazolidine-2,4-dione] | 5.02
